The compounds below were run on Plasmodium falciparum (assay: GSK_TCMDC: Inhibition of Plasmodium falciparum 3D7 in whole erythrocytes, using parasite LDH activity as an index of growth.). Conditions: Plasmodium falciparum, 3D7.
Format: functional, organism-based
Work on `COc1ccc(Nc2nc(N/N=C/c3cc(Br)ccc3O)nc(Nc3ccc([N+](=O)[O-])cc3)n2)cc1` yielded an XC50 of 222 nM. `CCNc1cc(C(=O)N[C@@H](Cc2ccccc2)[C@H](O)CN[C@H]2CCc3ccccc32)cc(N2CCCC2=O)c1` gave an XC50 of 295 nM. For `Cc1[nH]c(C)c(-c2ccc(Oc3ccc(F)cc3)cc2)c(=O)c1Br`, the XC50 was 54.9 nM. With `COc1nc2c(CCN3CC[C@H](NCc4cc(C#N)c5c(c4)CCO5)[C@H](O)C3)ccnc2cc1F` the XC50 was 350 nM. `COc1ccc(CN2CCC2=O)c(OC)c1` was tested, and the XC50 was 122 nM. `Cn1nc(-c2cccc(CNCc3ccccc3)c2)c2cnc(NC3CCCC3)nc21` gave an XC50 of 1260 nM. For `Cc1cccc2nc(-c3ccc(-c4cccc(CN5CCC(N)C5)c4)s3)[nH]c12` (stereo not given), the XC50 was 773 nM. Compound `CN(C)CCOc1cc(NC(=O)Nc2ccc(-c3ccncc3)c3ccccc23)ccc1I` has an XC50 of 777 nM. `O=C(CCCCCNC(=O)c1ccc(O)c(-c2cccc(C(F)(F)F)c2)c1)NCCN1CCCCC1` gave an XC50 of 888 nM. `O=C(NC1CCCCCC1)[C@@H]1CCCN1C(=O)c1ccc(O)c(-c2ccc(Cl)c(Cl)c2)c1` showed an XC50 of 345 nM. In the case of `N#Cc1cccc(COC(=O)C2=C(COc3ccccc3Cl)NC(=O)NC2c2c[nH]c3cnccc23)c1` (stereo not given), the XC50 is reported as 792 nM. Work on `COc1ccc(CNCc2ccc(F)cc2)cc1-c1ccc(S(=O)(=O)NCCN2CCCC2)c(C)c1` yielded an XC50 of 734 nM. Work on `N=C(N)NN=Cc1ccccc1OCc1ccccc1Cl` yielded an XC50 of 718 nM. `COc1c(OC)c(OC)c2ccccc2c1CNCCCCCCNCc1c(OC)c(OC)c(OC)c2ccccc12` showed an XC50 of 759 nM. With `Cc1cc(N2CCN(CC3CCCCC3)CC2)nc(Nc2ccc(Br)cc2)n1` the XC50 was 1090 nM. Compound `O=C(NC1CC1)c1cnc(N2CCC(Oc3ccc(Cl)cc3)CC2)c(Cl)c1` has an XC50 of 1090 nM. Work on `COC(=O)c1cc(OC)c(OC)cc1NC(=O)NC12CC3CC(CC(C3)C1)C2` yielded an XC50 of 879 nM. `Cc1cc(-c2cnc(N)c(-c3ccc(N4CCN(C)CC4)nc3)c2)cc(C)c1O` showed an XC50 of 1400 nM. `O=C(Cc1cccc(Cl)c1)Nc1cccc(-c2c[nH]c3nc(Nc4cccc(O)c4)ncc23)c1` was tested, and the XC50 was 731 nM. In the case of `NOCCCCOc1cc(Cl)c(Cl)cc1Cl`, the XC50 is reported as 175 nM. For `Cc1ccc(CC(C)NCC(O)c2cccc(C#N)c2)cc1` (stereo not given), the XC50 was 944 nM. `CCC(COCc1ccc(Cl)cc1)N(C)CCN(C)C(CC)COCc1ccc(Cl)cc1` (stereo not given) gave an XC50 of 1060 nM. Compound `CC(C)OCCCNC(=O)c1nc(-c2cccc(C(F)(F)F)c2)sc1C(C)C` has an XC50 of 1160 nM. `CC(C)(C)c1ccc(N2C(N)=NC(N)=NC2(C)C)cc1` gave an XC50 of 26.7 nM. `COC(=O)c1cccc(CNCc2cccc(-c3ccc(-c4nc5cccc(C)c5[nH]4)cc3)c2)c1` showed an XC50 of 322 nM. `N#Cc1ccc(N(CCOc2ccc(Cl)cc2)Cc2ccccc2C(F)(F)F)cc1C(F)(F)F` was tested, and the XC50 was 656 nM. For `COc1ccc(NC(=O)C2CCN(CCCCCNC(=O)/C=C/c3ccc(Cl)c(Cl)c3)CC2)cc1`, the XC50 was 828 nM. For `CCN1CCN(c2ccc(NC(=O)c3cc4c(C)nn(-c5ccccc5)c4s3)cc2C)CC1`, the XC50 was 757 nM. For `COc1ccc(-c2cccc(NC(=O)c3cccc(Cl)c3)c2)cc1CN(C)CCN(C)C`, the XC50 was 813 nM. In the case of `NC(=O)c1cc2nc(Nc3ccc(F)cc3)nc(NC3CCC3)c2[nH]1`, the XC50 is reported as 195 nM. For `Cc1cccc(CN2CCC(C(=O)Nc3ccc(-c4nc5ccccc5[nH]4)cc3)CC2)n1`, the XC50 was 919 nM. `Nc1ncc(-c2ccccc2)cc1/C=C/c1cccnc1` was tested, and the XC50 was 1120 nM. For `Cc1[nH]c2ccc(O)cc2c1C1CCN(CC2CCC(NC(=O)/C=C/c3ccc(Cl)c(Cl)c3)CC2)CC1` (stereo not given), the XC50 was 764 nM. With `CCCCCCC(C)(C)c1cc(O)c2c3c(c(=O)oc2c1)CCN(Cc1ccccc1)C3` the XC50 was 217 nM. For `O=C(Nc1cccc2ccccc12)N1CCc2cc3nccc(N4CCN5CCC[C@H]5C4)c3cc21`, the XC50 was 889 nM. `O=C(Cc1cc(F)cc(F)c1)NC1CCN(c2ccnc3cc(Cl)ccc23)C1` (stereo not given) was tested, and the XC50 was 250 nM. For `COC(=O)c1cccc(CNCc2cccc(-c3cccc(-c4nc5cc(F)ccc5[nH]4)c3)c2)c1`, the XC50 was 129 nM. With `Nc1cc(C(F)(F)F)ccc1Cl` the XC50 was 736 nM. With `Cc1[nH]c2cc(Cl)ccc2c1C1=CCN(CCCCC2(C)C(=O)Nc3c(F)cccc32)CC1` (stereo not given) the XC50 was 843 nM. `CC1CN(c2cnn(Cc3cccc(NC(=O)Nc4ccc(-c5ccccc5)cc4)c3)c(=O)c2Cl)CC(C)N1` (stereo not given) was tested, and the XC50 was 340 nM. For `O=C(Nc1ccc(N2CCCN(Cc3cccc(F)c3)CC2)cc1)c1cccs1`, the XC50 was 546 nM. Compound `COc1ccccc1N1CCN(Cc2cc(C(C)C)c(C)cc2O)CC1` has an XC50 of 572 nM. `CCOc1ccc(C(C)NC(=O)c2cc(Cl)ccc2OC)cc1OCC` (stereo not given) showed an XC50 of 971 nM. `O=C(c1cc(C(=O)Nc2ccccc2)c(=O)n(-c2ccccc2)c1)c1cc(Cl)ccc1O` was tested, and the XC50 was 390 nM. `CCOC(=O)N1CCN(CCCNc2c3ccccc3nc3ccccc23)CC1` gave an XC50 of 1010 nM. `COc1ccc(NC(=O)[C@H](C)Nc2cc(C)nc(NCC3CCCCC3)n2)cc1` gave an XC50 of 1280 nM. Compound `CCCC(C)Nc1nc(C)cc(N[C@@H](CC(C)C)C(=O)NCCc2ccccc2)n1` (stereo not given in full) has an XC50 of 1360 nM. `O=C(c1cc(C(=O)NCc2ccc(Cl)cc2)c(=O)n(Cc2ccc(Cl)cc2)c1)c1cc(Cl)ccc1O` gave an XC50 of 1400 nM. Work on `O=C(Nc1ccc(Cl)cc1)c1ccc(CN2CCCN(Cc3ccc(F)cc3)CC2)cc1` yielded an XC50 of 966 nM. `CN(c1cc(NC(=O)c2ccc(F)cc2)ccn1)C1CCN(Cc2ccc(C#N)cc2)CC1` showed an XC50 of 1510 nM. With `CC1(C)NC(N)=NC(=N)N1OCCOc1cccc(C(F)(F)F)c1` the XC50 was 3.2 nM. In the case of `CCN(CC)/C(=N/C(=N)Nc1ccc(Cl)c(Cl)c1)NCCCCCCN/C(=N\C(=N)Nc1ccc(Cl)c(Cl)c1)N(CC)CC`, the XC50 is reported as 761 nM. `CC(C)(CNC(=O)C1CCN(Cc2ccoc2)CC1)c1nc(-c2ccc(Cl)c(O)c2)c(-c2ccncc2)[nH]1` gave an XC50 of 866 nM. Compound `COc1cccc(OCC2CCCN(CCCCNC(=O)c3ccc(NC(=O)c4ccc(Cl)cc4)cc3)C2)c1` (stereo not given) has an XC50 of 748 nM. `O=C(c1ccccc1F)N(Cc1ccc(Cl)cc1)c1ccccn1` gave an XC50 of 1020 nM. Work on `CCCCCCCN(Cc1ccc(OC(C)(C)C(=O)OCC)cc1)C(=O)Nc1ccc(Cl)cc1OCC` yielded an XC50 of 817 nM. For `Cn1nccc1C(=O)NCCNCc1ccc(-c2ccc(-c3nc4cc(C(F)(F)F)ccc4[nH]3)s2)cc1`, the XC50 was 186 nM. Compound `CCCc1cc(C(=O)N[C@@H](Cc2ccccc2)[C@H](O)CNC2CCOCC2)c(F)c(N2CCCCS2(=O)=O)c1` has an XC50 of 166 nM. With `Cc1cccc2nc(-c3ccc(-c4cccc(NC(=O)c5ccncc5)c4)cc3)[nH]c12` the XC50 was 839 nM. Work on `OCCCCCCNc1nc(NCc2ccccc2-c2ccc(C(F)(F)F)cc2)nc(N2CCNCC2)n1` yielded an XC50 of 1440 nM. `CN1CCN(CCCN(Cc2ccc(-c3ccc(CNCc4ccc5c(c4)OCO5)cc3)cc2)C(=O)Nc2ccccc2)CC1` gave an XC50 of 707 nM. `CSc1nc2cc3c(cc2n1C(=O)c1ccc(C)cc1)OCCO3` was tested, and the XC50 was 166 nM. With `COc1ccc(CNCc2cccc(-c3ccc(-c4nc5cccc(C)c5[nH]4)s3)c2)cc1` the XC50 was 263 nM. Work on `COc1ccc(Cl)cc1-c1nc(C(=O)NCCN2CCCCC2)c(C(C)C)s1` yielded an XC50 of 753 nM. `Cc1ccc(C(=O)Nc2ccc(F)cc2)cc1-c1nc(NC2CC(C)(C)NC(C)(C)C2)nc2c1ccc(=O)n2-c1c(F)cccc1F` gave an XC50 of 684 nM. In the case of `OC[C@H](Nc1nc(C(Oc2ccccc2)c2ccccc2)nc2[nH]ncc12)c1ccccc1` (stereo not given in full), the XC50 is reported as 854 nM. `CC(=O)Nc1nc(C(=O)Nc2ccc(-c3ccc(-c4nc5cc(F)ccc5[nH]4)cc3)cc2)cs1` was tested, and the XC50 was 460 nM. Compound `CCCC(C)NC(=O)c1cnn(-c2ccc(C(C)(C)C)cc2)c1OCc1ccc(Br)cc1` (stereo not given) has an XC50 of 1060 nM. `CN(C)Cc1ccc(-c2ccc3c(Nc4ccc(Oc5ccccn5)cc4)ccnc3c2)o1` showed an XC50 of 159 nM. With `CCCC(=O)c1cnc2c(OCCCc3c[nH]cn3)cccc2c1Nc1c(C)cccc1C` the XC50 was 338 nM.
